Test results reported in patent US20240226115A1, “AXL INHIBITOR COMPOUNDS” (ARCUS BIOSCIENCES, INC., priority 2021, published 2024).

Target: T1, recombinant human MER (Homo sapiens, UniProt Q12866)
T1 construct: purchased Invitrogen
T1 sequence (Q12866 21-999): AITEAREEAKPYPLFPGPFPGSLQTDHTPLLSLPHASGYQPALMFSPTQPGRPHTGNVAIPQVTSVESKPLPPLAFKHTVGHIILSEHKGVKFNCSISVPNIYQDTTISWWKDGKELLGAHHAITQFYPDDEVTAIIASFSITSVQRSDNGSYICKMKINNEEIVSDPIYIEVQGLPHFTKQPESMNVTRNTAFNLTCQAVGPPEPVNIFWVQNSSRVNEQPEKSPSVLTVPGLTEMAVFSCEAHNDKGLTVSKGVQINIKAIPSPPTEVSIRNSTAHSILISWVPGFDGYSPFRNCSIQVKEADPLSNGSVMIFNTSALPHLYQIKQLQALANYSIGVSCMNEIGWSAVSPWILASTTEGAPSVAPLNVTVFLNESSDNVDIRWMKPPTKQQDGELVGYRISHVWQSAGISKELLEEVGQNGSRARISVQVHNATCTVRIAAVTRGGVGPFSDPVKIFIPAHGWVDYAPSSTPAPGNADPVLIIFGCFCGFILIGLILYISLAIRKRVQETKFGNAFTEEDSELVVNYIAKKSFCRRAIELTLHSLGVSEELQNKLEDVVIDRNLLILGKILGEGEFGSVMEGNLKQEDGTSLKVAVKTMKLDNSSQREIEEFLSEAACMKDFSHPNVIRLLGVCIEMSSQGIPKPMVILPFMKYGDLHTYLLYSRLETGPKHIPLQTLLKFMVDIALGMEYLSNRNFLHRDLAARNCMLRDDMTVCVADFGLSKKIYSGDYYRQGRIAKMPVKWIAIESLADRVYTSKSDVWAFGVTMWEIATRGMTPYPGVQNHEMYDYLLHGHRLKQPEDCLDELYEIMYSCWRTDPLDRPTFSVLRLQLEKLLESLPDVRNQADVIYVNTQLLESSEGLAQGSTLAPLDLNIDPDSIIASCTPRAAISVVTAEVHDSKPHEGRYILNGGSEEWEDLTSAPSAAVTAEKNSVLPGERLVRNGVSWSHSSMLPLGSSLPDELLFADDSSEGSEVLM
Experiment: HTRF KinEASE-TK biochemical potency, MER
Conditions: 1 nM MER, 700 μM ATP
Method: Purified recombinant human AXL, TYRO3 and MER proteins were purchased from Invitrogen™. 10 nM AXL, 2 nM TYRO3 or MER were incubated with varying concentrations of compounds in 50 mM HEPES, pH 7.4, 10 mM MgCl2, 0.01% BSA, 1 mM DTT and 2% DMSO in a total volume of 20 μl in a 384-well microplate (Corning™ #3640) at RT for 1 h. The AXL, TYRO3 and MER enzymatic reaction was initiated by transferring 10 μl of enzyme and compound mixture into 10 μl of 1.6 μM TK Substrate-biotin (HTRF® KinEASE-TK kit, Cisbio) and 1400 μM ATP pre-incubated in 50 mM HEPES, pH 7.4, 10 mM MgCl2, 0.01% BSA, 1 mM DTT in a 384-well microplate (Corning™ #3640) at RT, giving the final reaction conditions: 5 nM AXL, 1 nM TYRO3 or MER, 800 nM TK Substrate-biotin and 700 μM ATP in 50 mM HEPES, pH 7.4, 10 mM MgCl2, 0.01% BSA, 1 mM DTT and 1% DMSO with varying concentrations of compounds. Following 2 h incubation at RT, the AXL, TYRO3 and MER enzymatic reaction was stopped by transfer of 10 μl of reaction into 10 μl of detection mix (400 nM Streptavidin-XL665, 200-fold dilution TK Antibody-Cryptate and detection buffer, HTRF® KinEASE-TK kit, Cisbio) in a white 384-well microplate (Perkin Elmer, OptiPlate 384). After 1 h incubation at RT, the plate was put into a plate reader (Evision) to read at 665/620 nm (acceptor/donor) for HTRF. The value of the DMSO blank (MIN inhibition=100% activity) was used as a negative control. The positive control was established by adding 5 μl of enzyme and DMSO mixture into 10 μl of detection mix followed by addition of 5 μl of TK Substrate-biotin and ATP mixture (MAX inhibition=0% activity). To calculate the percent activity, Equation 1 was used. Ratio665/620 is the value at a given compound concentration: […]

Structure (SMILES) | IC50
C[C@@H]1CCCN1C1(C)CCc2ccc(-c3cnc4[nH]nc(-c5ccc6c(c5)OCCNC6=O)c4c3)cc2CC1 (stereo partly drawn) [Example 23, 8-(5-{7-Methyl-7-[(2R)-2-methylpyrrolidin-1-yl]-6,7,8,9-tetrahydro-5H-benzo[7]annulen-2-yl}-1H-pyrazolo[3,4-b]pyridin-3-yl)-2,3,4,5-tetrahydro-1,4-benzoxazepin-5-one] | < 100 nM
C[C@H]1CCCN1C1(C)CCc2ccc(-c3cnc4[nH]nc(-c5ccc6c(c5)OCCNC6=O)c4c3)cc2CC1 (stereo partly drawn) [Example 24, 8-(5-{7-Methyl-7-[(2S)-2-methylpyrrolidin-1-yl]-6,7,8,9-tetrahydro-5H-benzo[7]annulen-2-yl}-1H-pyrazolo[3,4-b]pyridin-3-yl)-2,3,4,5-tetrahydro-1,4-benzoxazepin-5-one] | < 100 nM
CC[C@@H]1CCCN1C1CCc2ccc(-c3cnc4[nH]nc(-c5ccc6c(c5)OCCNC6=O)c4c3)cc2CC1 (stereo partly drawn) [Example 25, 8-(5-{7-[(2R)-2-Ethylpyrrolidin-1-yl]-6,7,8,9-tetrahydro-5H-benzo[7]annulen-2-yl}-1H-pyrazolo[3,4-b]pyridin-3-yl)-2,3,4,5-tetrahydro-1,4-benzoxazepin-5-one] | < 100 nM
CC1(O)CCOc2cc(-c3n[nH]c4ncc(-c5ccc6c(c5)CCN(C5CCCC5)CC6)cc34)ccc21 (stereo not shown) [Example 26, 7-[5-(3-Cyclopentyl-2,3,4,5-tetrahydro-1H-3-benzazepin-7-yl)-1H-pyrazolo[3,4-b]pyridin-3-yl]-4-methyl-3,4-dihydro-2H-1-benzopyran-4-ol] | 100 to 1000 nM
CC1(O)CCCCc2cc(-c3n[nH]c4ncc(-c5ccc6c(c5)CCN(C5CCCC5)CC6)cc34)ccc21 (stereo not shown) [Example 27, 2-[5-(3-Cyclopentyl-2,3,4,5-tetrahydro-1H-3-benzazepin-7-yl)-1H-pyrazolo[3,4-b]pyridin-3-yl]-5-methyl-6,7,8,9-tetrahydro-5H-benzo[7]annulen-5-ol] | > 1000 nM
CC1(O)CCCOc2cc(-c3n[nH]c4ncc(-c5ccc6c(c5)CCN(C5CCCC5)CC6)cc34)ccc21 (stereo not shown) [Example 28, (8-[5-(3-Cyclopentyl-2,3,4,5-tetrahydro-1H-3-benzazepin-7-yl)-1H-pyrazolo[3,4-b]pyridin-3-yl]-5-methyl-2,3,4,5-tetrahydro-1-benzoxepin-5-ol)] | 100 to 1000 nM
C[C@@H]1CCCN1C1CCc2ccc(-c3cnc4[nH]nc(-c5ccc6c(c5)OCCC6(C)O)c4c3)cc2CC1 (stereo partly drawn) [Example 29, 4-Methyl-7-(5-{7-[(2R)-2-Methylpyrrolidin-1-yl]-6,7,8,9-tetrahydro-5H-benzo[7]annulen-2-yl}-1H-pyrazolo[3,4-b]pyridin-3-yl)-3,4-dihydro-2H-1-benzopyran-4-ol] | 100 to 1000 nM
CC1(O)CCc2cc(-c3n[nH]c4ncc(-c5ccc6c(c5)CC[C@@H](N5CCCC5)CC6)cc34)ccc21 (stereo partly drawn) [Example 30, 1-Methyl-5-{5-[(7S)-7-(pyrrolidin-1-yl)-6,7,8,9-tetrahydro-5H-benzo[7]annulen-2-yl]-1H-pyrazolo[3,4-b]pyridin-3-yl}-2,3-dihydro-1H-inden-1-ol] | 100 to 1000 nM
CC1(O)CCOc2cc(-c3n[nH]c4ncc(-c5ccc6c(c5)CC[C@@H](N5CCCC5)CC6)cc34)ccc21 (stereo partly drawn) [Example 31, 4-Methyl-7-{5-[(7S)-7-(pyrrolidin-1-yl)-6,7,8,9-tetrahydro-5H-benzo[7]annulen-2-yl]-1H-pyrazolo[3,4-b]pyridin-3-yl}-3,4-dihydro-2H-1-benzopyran-4-ol] | 100 to 1000 nM
CC1(C)NS(=O)(=O)c2cc(-c3n[nH]c4ncc(-c5ccc6c(c5)CCC(N5CCCC5)CC6)cc34)ccc21 (stereo not shown) [Example 32, 3,3-Dimethyl-6-{5-[7-(pyrrolidin-1-yl)-6,7,8,9-tetrahydro-5H-benzo[7]annulen-2-yl]-1H-pyrazolo[3,4-b]pyridin-3-yl}-2,3-dihydro-1λ^6,2-benzothiazole-1,1-dione] | < 100 nM
